Where no end group is shown, it is not given here.
Key:
peritoneal cells = assay: Viability of peritoneal cells incubated in vitro with fibrils; assay type: cell-based, C57BL/6 mice; details: 1.0-0.125 μg/well, 30 or 120 minutes, PI staining
Method: FIG. 3. […] Peritoneal cells were isolated by lavage of C57BL/6 mice, aliquoted 500,000 cells per well of a 96 well round bottomed plate and treated with 1.0, 0.5, 0.25, 0.125 μg/well of Amylin 28-33 for 30 minutes or 120 minutes in DMEM with 10% FCS. At the end of the incubation the cells were spun, supernatant aspirated, and the cells were stained with rat anti-mouse CD11b (Pacific Blue), CD5 (PE), CD19 (APC), and incubated for 30 minutes on ice. The cells were washed once, aspirate transferred to FACS tubes, PI added, and analyzed by flow cytometry.

μMT mice with EAE = assay: EAE in B cell-deficient μMT mice, with or without adoptive transfer of B-1a lymphocytes; assay type: in vivo; details: 10 μg daily i.p., no cell transfer
Method: Induction of active EAE in mice by immunization with MOG and adjuvant. EAE was induced in female wild type C57Bl/6 mice or μMT and IL-10 deficient mice on C57B/6 background (Jackson Laboratories) by procedures previously described. Briefly, EAE was induced at 9 weeks of age by subcutaneous immunization in the flank with an emulsion containing 200 μg myelin oligodendrocyte glycoprotein35-55 (MOG35-55; […] (SEQ ID NO: 1065)) in saline and an equal volume of complete Freund's adjuvant containing […] mycobacterium tuberculosis H37RA (Disco Laboratories). All mice were given 400 ng of pertussis toxin (List Biological) intraperitoneal (i.p.) at 0 and 48 h post-immunization. The signs of neurological impairment were scored as follows: 0, no clinical disease; 1, tail weakness; 2, hindlimb weakness; 3, complete hindlimb paralysis; 4, hindlimb paralysis and some forelimb weakness; 5, moribund or dead. […] For intranasal inoculation, 10 μg of Amylin 28-33 in 10 μl PBS was gradually released into the nostrils of anesthetized mice. All animal protocols were approved by institutional IACUC.
B-1a lymphocytes were purified by cell sorting of peritoneal cells from wild type C57Bl/6 mice. […] Mice were examined daily for clinical signs of EAE and were scored on a five point scale described above.

PBMCs = assay: Type 1 IFN response and cytokine production in PBMCs of treated mice; details: mouse, in vivo
[1] = system: B-1a lymphocytes and peritoneal MΦs (SPM, LPM); assay: Differential gene expression (microarray, qPCR) in sorted B-1a lymphocytes and peritoneal MΦs after i.p. injection; assay type: in vivo, C57BL/6 mice; details: 10 μg i.p., cells isolated 30-40 minutes after injection
Method: Total RNA was extracted from FACS purified B-1a lymphocytes and peritoneal MΦs pooled from 3-6 C57BL/6 female mice injected with 10 μg of LPS, Tau 623-628, Amylin 28-33, or PBS using Trizol reagent and the Qiagen RNeasy micro kit. First strand cDNA was synthesized with 30-50 ng of total RNA using Superscript III first strand synthesis supermix for qRT-PCR. QPCR assays were performed using the 7900HT Fast Real Time PCR System (Applied Biosystems), and the Taqman Gene Expression Arrays (Applied Biosystems) using commercially available primers (ABI). All assays were performed according to manufacturer's instructions. The comparative Ct method for relative quantification (ΔΔCt) was used to compare gene expression. […]
Gene expression changes associated with treatment with LPS, Amylin 28-33, and Tau 623-628, were quantified using a microarray (SurePrint G3 Mouse; Agilent Technologies). […] Analysis and quantitation of the data were done using GeneSpring and Ingenuity software.
To confirm and increase the understanding of how the fibrils are activating the peritoneal cells, differential gene induction in purified B-1a and LPMs was analyzed. […] B-1a lymphocytes (CD19^hiCD5^+CD23^−) and LPMs (CD11b^hi MΦs) from the four groups of three mice were sorted into Trizol, RNA extracted, and gene expression measured using a murine Agilent whole genome expression microchip. […]

[2] = system: B-1a lymphocytes and LPMs; assay: Bioluminescence imaging of trafficking of adoptively transferred luc+ B-1a lymphocytes and LPMs; assay type: in vivo, C57BL/6 albino mice
Method: B-1a lymphocytes and peritoneal MΦs were purified by cell sorting of peritoneal cells isolated from luciferase transgenic mice ((B6.FVB-Ptprca Tg(CAG-luc,-GFP)L2G85Chco Thy1a/J), which express the CAT-luc-eGFP, L2G85 transgene). In the initial experiment 2×10^5 and 1×10^5 B-1a lymphocytes were injected in the peritoneum of C57BL/6 female albino mice (B6(Cg)-Tyr^c-2J/J), followed by injection of 10 μg of Tau 623-628 to activate the lymphocytes, and 0.3 mg/g body weight of luciferin substrate (D luciferin firefly L-8220 Biosynth) to initiate the bioluminescence imaging. The location of the luciferase expressing cells was measured by imaging every 5 minutes for 75 minutes.
To confirm the diminution of luminescence was due to the trafficking of the luc^+ cells, and not the degradation of the luciferin, two C57BL/6 albino mice were injected with […] peritoneal MΦs, a third with 2×10^5 B-1a lymphocytes, and fourth mouse serving as a BLI control was injected with luciferin only. The mice were subsequently injected with 10 μg of Tau 623-628 and 0.3 mg/gram of luciferin. Bioluminescence was measured immediately after the injection of luciferin and 5 minutes later. After thirty minutes the mice were reinjected with luciferin and the resultant luminescence measured. […] Imaging data were analyzed and quantified with Living Image software 4.4 (Xenogen).
Amyloidogenic peptides induce exodus of B-1a lymphocytes and LPM from the peritoneal cavity. […] The location of the luciferase expressing cells was monitored by imaging the mice every 5 minutes for 75 minutes (FIG. 5, top left). The diffuse distribution of the luminescence, corresponding to the peritoneal cavity, seen at early times, was reduced in intensity over time, with focal regions of intensity appearing to localize in inguinal lymph nodes beginning at 35 minutes (FIG. 5, top left). […]
To better assign the basis of the reduction of luminescence to the migration of the luc^+ cells, a second experiment was performed with four recipient mice. […] Bioluminescence was measured immediately after the injection of luciferin and 5 minutes later. […]

[3] = system: peritoneal cells (B-1a and B-2 lymphocytes, LPMs, T lymphocytes, mast cells); assay: Binding and endocytosis of FITC-Tau fibrils by peritoneal cells after i.p. injection (confocal microscopy, flow cytometry); assay type: in vivo, C57BL/6 mice; details: 10 μg i.p., peritoneal cells stained for CD19 and F4/80
Method: C57B/6 female mice were injected with FITC-Tau 623-628, and peritoneal cells were isolated after 10 minutes, washed, stained with rat antimouse CD19 (PE), F4/80 (Alexa Fluor 647), and DAPI, washed, and plated on polylysine coated microscope slides. Cells were visualized using a Leica TCS SP8 white light laser confocal microscope.
Peptides were synthesized using solid phase techniques and commercially available Fmoc amino acids, resins, and reagents (PE Biosystems, Foster City Calif., and Bache, Torrance, Calif.) on an Applied Biosystems 433A peptide synthesizer as previously described. Wender et al. (2000) Proc. Natl. Acad. Sci. USA 97(24):13003-13008. […] The molecular weight of the peptides was confirmed using matrix assisted laser desorption mass spectrometry. To prevent excess amounts of fluorophore in the fibrils, Tau 623-628 was mixed at a ratio of 10:1 with an analog with FITC attached to the amino terminus of Tau 623-628 with an amino caproic acid linker. The resulting fibril mixture is referred to in the text as FITC-Tau.
Peritoneal cavity cells were obtained by flushing the peritoneal cavity with 10 ml of cold PBS containing 0.1% bovine serum albumin and 5 mM EDTA. […]

Substance | cell viability / cell death of peritoneal cells in vitro (peritoneal cells) | therapeutic effect on paralytic signs of EAE in μMT mice (μMT mice with EAE) | type 1 IFN induction (PBMCs) | pattern of gene expression (microarray heatmap) [1] | increase in luminescence over inguinal lymph nodes ([2]; 60 min compared with 5 min, luc+ LPMs, 10 μg i.p.) [fold] | time at which focal luminescence begins to localize in inguinal lymph nodes ([2]; luc+ B-1a lymphocytes, 10 μg i.p.) [min] | photons per second in the abdominal region ([2]; luc+ B-1a lymphocytes, over 75 minutes) | binding and endocytosis of fibrils by B cells and MΦs (confocal microscopy) [3]
SSTNVG [Amylin 28-33, SSTNVG] | does not affect cell viability | – | – | – | – | – | – | –
VQIVYK [Tau 623-628, amyloidogenic hexapeptide of tau, forms amyloid fibrils] | – | neither Tau 623-628, nor Amylin 28-33 was therapeutic | induced a type 1 interferon (IFN) response | induce a different pattern of gene expression than LPS | ~10 | 35 | rapid, dose dependent, reduction of light emitted | bind and are endocytosed
